From patent publication US20210253518A1, “KINASE INHIBITOR” (NISSAN CHEMICAL CORPORATION, priority 2018, published 2021)

Tests used:
[1] = test system: mouse partial liver resection model; assay: Liver weight increase in mouse partial liver resection model; type: in vivo; conditions: 10 mg/kg intraperitoneally 4 times every 24 hr, about 30% of the liver removed, FIG. 2
Procedure: A partial liver resection model in which the mouse liver was partially resected was prepared as described below, and the liver weight increasing effect of the specific compound was evaluated by comparing the liver weight immediately after the resection with the liver weight 3 days after the resection.
A 0.5 w/v % methylcellulose aqueous solution (0.5% MC, manufactured by FUJIFILM Wako Pure Chemical Corporation) and k-1:B-1, k-1:J-1 were evaluated. k-1:B-1 and k-1:J-1 were suspended in 0.5% MC, and prepared at a final concentration of 1 mg/mL.
Mice, BALB/cAnNCrlCrlj, 5-week-old, male, were purchased from Charles River Laboratories, Japan. In terms of the 0.5% MC administration control group, 0.5% MC 10 mL/kg was administered intraperitoneally once, and 24 hr later, the entire liver was isolated and the liver weight was measured (n=5). […] After that, the abdomen was closed, and 24 hr after the final administration, the entire liver was removed and the liver weight was measured (n=4). In terms of the k-1:B-1 or k-1:J-1 administration-control group, k-1:B-1 or k-1:J-1 10 mg/kg, 10 mL/kg, was intraperitoneally administered once, and 24 hr later, the entire liver was isolated and the liver weight was measured (n=5). […] After that, the abdomen was closed, and 24 hr after the final administration, the entire liver was removed and the liver weight was measured (n=5).

TAZ protein = assay: Imaging analysis of nuclear translocation in SKOV3 cells; type: cell-based, human; conditions: 10 μM, 4 hr, ratio of fluorescence intensity nucleus/cytoplasm, no addition 6.98
Procedure: (§1) Compounds k-1:B-1, k-1:H-1, and k-1:J-1 were evaluated for nuclear translocation of YAP protein and TAZ protein. For the nuclear translocation, imaging analysis was performed using the human ovarian cancer cell line SKOV3 (manufactured by DS Pharma Biomedical Co., Ltd) and OperettaCLS (manufactured by PerkinElmer) described below. The compounds were added such that the final concentration of the test concentration of k-1:B-1, k-1:H-1, and k-1:J-1 was 10 μM.
(§2) Human ovarian cancer cell line SKOV3 cultured according to the protocol recommended by DS Pharma Biomedical Co., Ltd. was seeded on a 96-well plate (manufactured by PerkinElmer, CellCarrier-Ultra) at 15,000 cells/90 μL/well on the cycloolefin bottom surface, and cultured in a CO2 incubator (37° C., 5% CO2) for 1 day. After culturing, 10 μL of k-1:B-1, k-1:H-1, and k-1:J-1 solutions having a concentration of 100 μM and dissolved in DMSO was added. The cells were further cultured in a CO2 incubator at 37° C. for 4 hr. The medium was exchanged with 4% para-formaldehyde, and the cells were fixed by allowing to stand at room temperature for 10 min. The fixed cells were subjected to immunostaining with AlexaFluor® 647-labeled YAP antibody (manufactured by Cell Signaling Technology), anti-mouse TAZ (D-8) antibody (manufactured by SantaCruz), AlexaFluor® 555-labeled anti-mouse IgG antibody (manufactured by Thermo Fisher Scientific), according to the recommended protocol produced by Cell Signaling Technology, and the cell nucleus was further stained with 10 μg/mL Hoechst33342 solution.
(§3) Nine fields of view were imaged per well using a 20× objective lens of Operatta CLS. The cell nucleus region and the cytoplasm region were identified from the obtained fluorescence images by using the analysis software Harmony (manufactured by PerkinElmer), and AlexaFluor® 647 fluorescence intensity per unit area and the AlexaFluor® 555 fluorescence intensity per unit area in each region were extracted. The nuclear translocation was evaluated by calculating the ratio of the fluorescence intensity of the cell nucleus region to the fluorescence intensity of the cytoplasmic region from the extracted values. The value becomes greater than 1 as the YAP protein and TAZ protein transfer into the cell nucleus, and less than 1 when localized in the cytoplasm.
(§4) The specific compound used in the present invention was evaluated for the nuclear translocation of YAP protein and TAZ protein. For the nuclear translocation, imaging analysis was performed using the human ovarian cancer cell line SKOV3 (DS Pharma Biomedical Co., Ltd) and OperettaCLS (PerkinElmer) described below. The specific compound was added such that the final concentration of the test concentration of the compound used in the present invention was 10 μM.
(§5) Human ovarian cancer cell line SKOV3 cultured according to the protocol recommended by DS Pharma Biomedical Co., Ltd. was seeded on a 96-well plate (PerkinElmer, CellCarrier-Ultra) at 15,000 cells/90 μL/well on the cycloolefin bottom surface, and cultured in a CO2 incubator (37° C., 5% CO2) for 1 day. After culturing, a solution of the specific compound used in the present invention dissolved in DMSO was added. The cells were further cultured in a CO2 incubator at 37° C. for 4 hr, the medium was exchanged with 4% para-formaldehyde, and the cells were fixed by allowing to stand at room temperature for 10 min. The fixed cells were subjected to immunostaining with AlexaFluor® 647-labeled YAP antibody (Cell Signaling Technology), anti-mouse TAZ (D-8) antibody (SantaCruz), AlexaFluor® 555-labeled anti-mouse IgG antibody (Thermo Fisher Scientific), according to the recommended protocol produced by Cell Signaling Technology, and the cell nucleus was further stained with 10 μg/mL Hoechst33342 solution.
(§6) Nine fields of view were imaged per well using a 20× objective lens of Operatta CLS. […]

YAP protein = assay: as above; type: cell-based, human; conditions: 10 μM, 4 hr, ratio of fluorescence intensity nucleus/cytoplasm, no addition 6.15
Procedure: as §1, §2, §3, §4, §5, §6

| SMILES | liver weight ratio after partial liver resection [1] | TAZ nuclear translocation rate (TAZ protein) | YAP nuclear translocation rate (YAP protein) |
| --- | --- | --- | --- |
| CC/C(=N\NC(=O)C(C)Nc1ccccc1)c1ccc(O)c(C)c1O (centres unmarked) [k-1:B-1] | promoting recovery of the liver weight after excision | 7.93 | 6.98 |
| CCC(=NNC(=O)CNc1ccccc1)c1ccc(O)c(C)c1O [k-1:H-1] |  | 8.84 | 7.60 |
| CC/C(=N\NC(=O)NCc1cccc(O)c1)c1ccc(O)c(C)c1O [k-1:J-1] | promoting recovery of the liver weight after excision | 9.14 | 7.92 |
